pIC50, pKi: −log10 of the molar value. “And” between values parts separate entries of the source, which are not always exact repeats. Identical values can stand only once. Like-named read-outs stand apart in the source and are kept apart here.
Assays:
[1] = test system: SH-SY5Y cells; assay: viability of neuroblastoma cells (MTS assay); type: cell-based, human
Experimental: The toxicity of AR71 in neuroblastoma cells was evaluated with the 3-(4,5-dimethylthiazol-2-yl)-5-(3-carboxymethoxyphenyl)-2-(4-sulfophenyl)-2H-tetrazolium (MTS) assay. The cells were cultured with AR71 at various concentrations ranging from nanomolar to micromolar for 24 h.
SH-SY5Y cells (the human neuroblastoma cell line) were purchased from the American Type Culture Collection (ATCC® no. CRL-2266™; Manassas, VA, USA). The cells were grown in a complete culture medium containing DMEM/F-12 medium (Gibco no. A41920-01) supplemented with 10% foetal bovine serum (FBS, Gibco no. 10500-064), non-essential amino acids (Biowest, Nuaillé, France), and antibiotics (Life Technologies) in a humidified incubator containing 95% air and 5% CO2 at 37 °C. Experiments were performed with SH-SY5Y cells from passage (15 up to 25—W.W.).
Neurotoxicity evaluation was performed with the SH-SY5Y cell line. The cells were seeded (5 × 10^3 cells/100 μL/well) in transparent 96-well plates (Corning Falcon, no. 353072, Merck KGaA, Darmstadt, Germany), in a complete culture medium and cultured overnight. The next day, the medium was removed and replaced with a fresh one containing 0.1% DMSO (vehicle control, Veh) or increasing concentration of the AR71 compound (the concentrations studied covered the range of nanomolar and micromolar concentrations). Treatment with the compounds was performed for 24 h. At the end of the incubation time, the cells were examined under an inverted microscope to rule out possible precipitation of the compound in the culture medium. Cell viability was examined using an MTS-based CellTiter96® AQueous One Solution Cell Proliferation Assay (Promega, Madison, WI, USA) following the manufacturer’s protocol. Briefly, 20 μL of MTS solution was pipetted directly into each well containing 100 μL of culture medium with or without cells (blank) and incubated at 37 °C for 1 h. The absorbance was measured at 490 nm using the Tecan Spark multimode plate reader (Tecan, Männedorf, Switzerland). A reference wavelength of 630 nm was used to subtract the background. The viability of individual samples was calculated relative to the vehicle-treated cells (0.1% DMSO). The results are presented as means with SEMs of two independent experiments, each comprising four replicates per treatment group. Data from the MTS assay were used to determine the IC50 value. It was calculated by fitting a nonlinear regression to a sigmoidal dose–response curve in GraphPad Prism version 8.0.1 (GraphPad Software, Inc., San Diego, CA, USA).

[2] = test system: BV-2 cells; parameters: method as in PMID 36370200; conditions: LPS-treated BV-2 cells; cited from earlier work
[3] = test system: human peripheral blood mononuclear cells (PBMCs); assay: PBMC viability (resazurin reduction assay); type: cell-based; conditions: for pIC50: Homo sapiens, PBMC, read-out: IC50 PBM Cells
Experimental: PBMCs were isolated from a leucocyte-buffy coat collected from the blood of healthy non-smoking donors from the Blood Bank in Lodz, Poland. They included lymphocytes, monocytes, and other white blood cells with a round nucleus. A portion of the leucocyte-buffy coat was diluted in 1% phosphate buffer saline (PBS). Then, it was centrifuged in a density gradient of Lymphosep (Cytogen, Zgierz, Poland) at 200× g for 20 min at room temperature. Next, the cells were collected and washed thrice in 1% PBS. The supernatant was poured off, and the pellet of the cells was resuspended in RPMI 1640 medium (Lonza, Basel, Switzerland). The study protocol was approved by the Committee for Research on Human Subjects of the University of Lodz, Poland (17/KBBN-UŁ/III/2019).
The resazurin reduction assay was performed similarly to that previously described by O’Brien et al.. Resazurin salt powder was dissolved in sterile PBS. The cells were seeded on 96-well plates in 5 × 10^4 for PBMCs per well. AR71 was added to the wells to achieve final concentrations of 0.78, 1.56, 3.125, 6.25, 12.5, 25, 50, and 100 µM. In the next step, the plates were incubated at 37 °C in 5% CO2 for 2 h, 24 h, 48 h, and 72 h. Then, 10 µL of resazurin salt was added to each well, and the plates were incubated again at 37 °C in 5% CO2 for 2 h. Next, fluorescence was measured with microplate reader BioTek Synergy HT (Agilent Technologies, Inc., Santa Clara, CA, USA) using an excitation wavelength of 530/25 nm and an emission wavelength of 590/35 nm.
The viability of PBMCs was estimated after 2, 24, 48, and 72 h of incubation with AR71. The viability of individual samples was calculated relative to the negative control (NC, untreated cells), which was taken as 100%. The positive control was PBMCs incubated with 0.1% DMSO (vehicle, Veh). The results represented the means with SEMs of six independent experiments and were expressed as a percentage of untreated control cells. The values were plotted against all used concentrations of AR71 to calculate the viability inhibition concentration at 50% (IC50) using GraphPad Prism 6.07 (GraphPad Software, Inc., San Diego, CA, USA).

[4] = biological target: hH4R; parameters: method as in PMID 36370200; conditions: cited from earlier work

COc1cc(/C=C/C(=O)c2ccc(OCCCN3CCCCC3)cc2)cc(OC)c1OC [AR71, (E)-3-(3,4,5-trimethoxyphenyl)-1-(4-(3-(piperidin-1-yl)propoxy)phenyl)prop-2-en-1-one]
loss in neuroblastoma viability vs control cells ([1]; 50 μM, 24 h): 73%
concentration from which cell metabolic activity decreased significantly (p < 0.001) ([1]; 24 h): ≥ 4.17 µM
pIC50 ([1]; Homo sapiens, SH-SY5Y, 24 h incubation): 4.60
effect on cell viability ([1]; concentrations up to 0.72 μM, 24 h): did not affect cell viability
effect on proinflammatory cytokines (IL-1β, IL-6, TNF-α), mRNA and protein level [2]: reduced the level of proinflammatory cytokines
decrease in the number of PBMCs ([3]; 100 µM, regardless of incubation time (2-72 h)): 80–98%
cytotoxic effect on PBMCs ([3]; 0.78, 1.56 and 3.125 µM, 2 h): did not cause a cytotoxic effect
decrease in the number of PBMCs ([3]; 6.25–50 µM, 2 h): ≤ 20%
pIC50 ([3]; 2 h incubation): 4.15
pIC50 ([3]; 24 h incubation): 4.68
pIC50 ([3]; 48 h incubation): 5.13
pIC50 ([3]; 72 h incubation): 5.34
pKi [4]: 5.55 and < 5.60

— paper PMC11311998, “AR71, Histamine H3 Receptor Ligand—In Vitro and In Vivo Evaluation (Anti-Inflammatory Activity, Metabolic Stability, Toxicity, and Analgesic Action)” (International Journal of Molecular Sciences, 2024)
